Values quoted from earlier work as cited in patent publication US20110004098A1, “ESTER IMAGING AGENTS” (priority 2008, published 2011).

Tested on: bladder carcinoma in situ
Details: cystoscopy with Hexvix, as opposed to 58% with white light cystoscopy

CCCCCCOC(=O)CCC(=O)CN.Cl [Hexvix, n-hexyl 5-aminolevulinate hydrochloride]
sensitivity of detecting bladder carcinoma in situ: 97%
